Experimental data: patent publication US8829014B2, “Thiazole and thiophene analogues, and their use in treating autoimmune diseases and cancers” (Board of Supervisors of Louisiana State University and …, priority 2006, dated 2014)

Key:
Assay type in all cases: cell-based
[1] = test system: eIF4E; test: eIF4E inhibitor screen: luciferase under FGF 5′UTR in FaDu cells (highly cap-dependent translation)
From the text: Since highly cap-dependent translation is associated with synthesis of proteins involved in cancer, a compound that inhibits this pathway may be used as an anti-cancer agent. The assay was developed by cloning the highly structured 5′ UTR of FGF, which requires high levels of eIF4E before protein synthesis can initiate, into the proper orientation of the reporter gene luciferase, and then stably transfecting the modified luciferase gene into the cell line FaDu that is known to have high levels of eIF4E. The activity of luciferase is then monitored in the presence and absence of the tested compound.
Generation of Stable Cell Lines: The pMS110 plasmid (pGL3-control plasmid from Promega which contains a neo selectable marker) was used to generate pMS110-5′UTR by cloning the 5′ UTR of FGF just upstream of the luciferase AUG start codon. FaDu cells, a head and neck cancer cell line, were transfected using Lipofectamine2000 (Invitrogen). Twenty-four hours after transfection G418 was added at 500 μg/ml. Cells were maintained in G418 for 14 days, and then individual colonies were transferred to a 96-well plate for propagation. Individual clones were analyzed for luciferase expression by plating 10^4 cells per well in a 96-well plate for 24 hours before lysing the cells and analyzing for luciferase activity in a Victor III (Perkin Elmer) or Lucy2 (Rosys Anthos). FaDu9000 and FaDuUTR were the clones that expressed the highest level of active luciferase following transfection of pMS110 and pMS110-5′UTR, respectively.
Analysis of Rapamycin Responsiveness: Cells of FaDu9000 and FaDuUTR were plated at 1×10^4 cells/well in a 96-well dish. Twenty-four hours after plating, 0.1% DMSO (vehicle control) or 10 nM rapamycin were added to each well, and the cells were maintained for an additional 24 or 48 hours. The cells were then lysed and luciferase activity was determined using BriteGlo (Promega) as per manufacturer's instruction and recorded using the Victor III. Following subtraction of background activity, the mean value of quadruplicate samples for a given experiment was determined, and the treated cells were normalized to the control. At least four separate experiments were conducted, and the mean and standard error were calculated. To determine if rapamycin affected cell viability, an MTS assay (Cell Proliferation One Solution, Promega) was carried out on each population at 48 hours in two separate experiments.
The FaDu cell line stably transfected with FGF 5′UTR was used to screen thirty-nine representative compounds, each at a concentration of 1.0 μM. Additional cells were treated with vehicle, 0.3% DMSO. Cells were plated for twenty-four hours in a 96-well plate. Each compound was then added to triplicate wells, and the cells were incubated for forty-eight hours before measuring luciferase activity as above. The mean luciferase activity was measured using Promega's Brite-Glo kit, and the mean for each sample was normalized to DMSO. The experiment was then repeated, and the average and standard deviation of the two experiments were determined (FIG. 8).

[2] = test system: FaDu cells; settings: MTT, 24 hr, 10 nM to 3.3 μM (FIG. 9)
From the text: […]. Values greater than 1.0 indicate activation, and values less than 1.0 indicate inhibition.) The compounds that inhibited luciferase translation might, potentially, act by generally inhibiting translation, by reducing cell numbers through inhibition of growth or by cell toxicity, or specifically by inhibiting highly cap-dependent translation. To analyze any general effects on cell viability, fourteen compounds were selected that altered luciferase activity (including a few that increased activity) to test for any effects on cell number. An MTT assay was used to monitor compounds for inhibition of cell growth and cell toxicity. The compounds were tested once in a six-point dose-response assay starting at 10 nM and increasing to 3.3 μM. FaDu cells were plated in a 96-well plate for 24 hr before addition of the compounds. Each compound was added in each of six concentrations (10 nM, 30 nM, 100 nM, 330 nM, 1000 nM, and 3300 nM), and each concentration was tested in triplicate. In addition, DMSO was used as a control. After incubating for 24 hr, the cell number was measured using the MTT assay.

[3] = test system: NF-κB; test: NF-κB inhibitor screen: basal NF-κB-dependent luciferase expression in HEK/NF-κB cell line
Summary of the method: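 HEK293 cells stably carrying a luciferase reporter under six NF-κB elements were treated with compound, unstimulated, 24 h after plating. Compounds were first tested at 1.0 μM (0.3% DMSO), later at six doses from 10 to 3300 nM, in triplicate. Brite-Glo luciferase signal was normalized to DMSO, or to the lowest dose for dose-response runs.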

[4] = test system: AP-1; test: AP-1 inhibitor screen: basal AP-1-dependent luciferase expression in HEK/AP-1 cell line; settings: 1.0 μM, 48 hr screen of 39 compounds (FIG. 13)
Summary of the method: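 HEK293 cells stably carrying a luciferase reporter driven by three AP-1 elements were plated 24 hr, then given compound at 1.0 μM in 0.3% DMSO for 48 hr, in triplicate. Basal expression without stimulus was read as luminescence (Brite-Glo), normalized to DMSO; dose-response runs repeated two to four times.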

## COc1ccc(C(=O)c2sc(Nc3ccc(Cl)cc3)nc2-c2ccncc2)cc1 [Example 116]
[1]; 1.0 μM, 48 h, FaDu UTR cells, normalized to DMSO (FIG. 8)
  luciferase expression under the control of the FGF 5′UTR: inhibited luciferase expression
[1]; highest concentration tested
  inhibition of luciferase activity (FGF 5′UTR): greater than 90%
[1]; summary in the disclosure
  inhibition of highly cap-dependent translation (summary statement): capable of inhibiting
[2]
  FaDu cell number / growth / viability: inhibited cell numbers at each concentration tested
[3]; 10 nM-3300 nM (FIG. 12)
  basal NF-κB-dependent luciferase, six-point dose response: robust inhibition
[3]; 3.3 μM (FIG. 12)
  inhibition of basal NF-κB-dependent luciferase expression: about 50%
[3]; summary in the disclosure
  inhibition of NF-κB (summary statement): capable of inhibiting
[4]
  basal AP-1-dependent luciferase expression: almost complete inhibition
